The first data set is described as follows: HLB of polyglycerol fatty acid ester, Griffin formula 20(1−S/A). It counts as physicochemical. The note with it: from saponification and acid values. From the text: The HLB (Hydrophile-Lipophile Balance) is an index indicating degrees of hydrophilic properties and lipophilic properties of a surfactant and being shown by a numerical value of 0 to 20. […] Therefore, a surfactant having a low HLB is apt to adapt to a hydrophobic system and a surfactant having a high HLB is apt to adapt to a hydrophilic system.
As the HLB value of said polyglycerol fatty acid ester, a numerical value derived from the following calculation method which is an empirical formula by Griffin is applied. In this regard, as the below-described saponification and acid values, values analyzed in accordance with general test procedures of standards for food additives and standards of quasi-drug ingredients are used. HLB value=20(1−S/A)
S: Saponification value for an ester of a surfactant.
A: Acid value of a fatty acid constituting a surfactant.
For “decaglycerol monocaprate [SY Glyster MCA-750]”, the HLB is listed as 16.
Still for that read-out and setting: next, decaglycerol heptaoleic acid ester: “about 5”; “tetraglycerol monolaurate [SY Glyster ML-310]”: 10.3.
Same read-out and setting: next, diglycerol tetraoleic acid ester: “about 2”; “hexaglycerol pentaoleate [SY Glyster PO-5S]”: 4.9.
The same measure, in the same setting: the result for hexaglycerol hexaoleic acid ester reads “about 4”.
As for “decaglycerol decaoleate [SY Glyster DAO-7S]”, the HLB amounted to 3.2.
The same measure, in the same setting: the result for decaglycerol dodecaoleic acid ester reads “about 3”.
Still for that read-out and setting: next, hexaglycerol heptaoleic acid ester: “about 4”; “hexaglycerol condensed ricinoleate [SY Glyster CR-500]”: 3; tetraglycerol trioleic acid ester: “about 5”.
Consider tetraglycerol tetraoleic acid ester, for which the HLB result is “about 4”.
Still for that read-out and setting: next, diglycerol dioleic acid ester: “about 4”.
On the same count and under the same terms, the result for decaglycerol octaoleic acid ester reads “about 5”; that for tetraglycerol hexaoleic acid ester, “about 2”; that for decaglycerol nonaoleic acid ester, “about 4”.
Still for that read-out and setting: the result for “polyglycerol condensed ricinoleate [SY Glyster CRS-75]” reads 3; that for diglycerol trioleic acid ester, “about 3”.
As for hexaglycerol octaoleic acid ester, the HLB entry is “about 4”.
Same read-out and setting: next, “hexaglycerol monooleate [SY Glyster MO-5S]”: 11.6; “decaglycerol erucate [SY Glyster OE-750]”: 3.7; diglycerol monooleate [S-FACE O-201P]: 8.
Same read-out and setting: the result for tetraglycerol pentaoleic acid ester reads “about 2”.
As for “decaglycerol erucate [SY Glyster NE-750]”, the HLB was 3.2.
The same measure, in the same setting: next, decaglycerol undecaoleic acid ester: “about 3”.

Staying with this data set, now noted: from saponification and acid values, listed as decaglycerol decaoleic acid ester.
On to “decaglycerol decaoleate [SY Glyster DAO-7S]”, for which the HLB entry is recorded as “about 4”.

Still in this data set, the particulars now being: from saponification and acid values, listed as decaglycerol monocapric acid ester.
As for “decaglycerol monocaprate [SY Glyster MCA-750]”, the HLB entry is “about 16”.

The same data set, now with this note: from saponification and acid values, listed as diglycerol monooleic acid ester.
With diglycerol monooleate [S-FACE O-201P], the HLB result is “about 8”.

Staying with this data set, now noted: from saponification and acid values, listed as hexaglycerol monooleic acid ester.
Turning to “hexaglycerol monooleate [SY Glyster MO-5S]”, the HLB entry is “about 11”.

The same data set, now with this note: from saponification and acid values, listed as hexaglycerol pentaoleic acid ester.
Regarding “hexaglycerol pentaoleate [SY Glyster PO-5S]”, the HLB entry is listed as “about 5”.

Still in this data set, the particulars now being: from saponification and acid values, listed as hexaglycerol-condensed ricinoleic acid ester.
For the compound “hexaglycerol condensed ricinoleate [SY Glyster CR-500]”, the HLB entry is recorded as “about 3”.

Still in this data set, the particulars now being: from saponification and acid values, listed as tetraglycerol monolauric acid ester.
Take “tetraglycerol monolaurate [SY Glyster ML-310]”: the HLB entry is given as “about 10”.

A short description of the next data set: Surface tension by Wilhelmy method (plate method). Type of data set: physicochemical. Particulars: 20° C., 0.1% by mass aqueous solution. How it is done: For surface tension in the present description, a numerical value measured by Wilhelmy method (plate method) is used. The principle of measurement is as described below. When a platinum plate is contacted with the surface of a liquid, the liquid rises along the plate. Then, surface tension acts along the periphery of the plate and a force drawing the plate into the liquid is generated. Thus in the method, this drawing force is measured and the surface tension is measured. Specifically, a 0.1% by mass aqueous solution of a sample nonionic surfactant is made as a measurement sample, which is measured by an automatic surface tension measuring machine (for example, DY-300 automatic surface tension meter, manufactured by Kyowa Interface Science Corp., Ltd.) by Wilhelmy method shown above at a temperature of 20° C. to determine the surface tension. […] The nonionic surfactant has a property to decrease the surface tension of an aqueous solution. For this reason, when an aqueous solution containing this adheres to the surface of another substance, “wettability” at said surface is improved. As a result, a diluent of the present invention composition containing said nonionic surfactant easily adheres to the surface of target pests and the surface of spray-target agricultural crops.
The term surface tension denotes the force per length acting along the surface. `CCCCCCCCOC(=O)CC(C(=O)OCCCCCCCC)S(=O)(=O)O` (stereo not drawn) [Newkalgen EP-70G, dioctyl sulfosuccinate]: the surface tension amounted to 28 mN/m.
